US5350768A, “Derivatives of cysteine” (priority 1987, dated 1994)
Like-named read-outs stand apart in the source and are kept apart here.

Columns and labels:
[1] = Plasma thiol concentrations after intraintestinal injection in anaesthetized rats
Method: (§1) Therefore, experiments were performed to investigate biological stability and bioavailability of the compounds of formula I, and to compare these with N-acetyl-L-cysteine.
The thiols were injected into the intestines of anaesthetized rats. At various times after the injections blood samples were withdrawn, and plasma thiols analyzed. […] The values given represent mean±SEM, unless otherwise stated.

[2] = Method: as §1
[3] = Plasma concentrations and urinary excretion in healthy human volunteers after oral intake
Method: as §1
Plasma concentrations and urinary excretion in helthy human volunteers were measured after oral intake of N-acetyl-L-cysteine, and N-isobutyryl-L-cysteine, 1.23 mmole of each.

SMILES	plasma level after intraintestinal injection (in words) ([1]; rat, in vivo)	concentration ([1]; read-out: concentrations of the thiols in plasma, after injection into intestines of anaesthetized rats, only one experiment performed) [µM]	biological stability (in words) [2]	Cmax ([3]; human, in vivo, po, 1.23 mmol) [µM]	bioavailability / plasma levels after oral intake (in words) ([3]; oral intake)	concentration ([1]; rat, in vivo) [µM]	bioavailability / plasma levels after oral intake (in words) ([3]; human, in vivo, po)	hydrolysis in homogenates [2]
CC(=O)N[C@@H](CS)C(=O)O [N-acetyl-L-cysteine, reference compound]	barely detectable in plasma	0.7	biologically unstable	< 1	poor bioavailability	–	–	–
CC(C)C(=O)N[C@@H](CS)C(=O)O [N-isobutyryl-L-cysteine]	reached considerable concentrations	–	much more biologically stable	–	–	13 ± 2.9	reached high concentrations in plasma	–
CC(C)(C)C(=O)N[C@@H](CS)C(=O)O [N-pivaloyl-L-cysteine]	–	–	much more biologically stable	–	–	11.8	–	not hydrolyzed to any measureable extent
